Reference: patent US9340543B2, “Helquat derivatives, preparation thereof, and use thereof as medicaments” (USTAV ORGANICKE CHEMIE A BIOCHEMIE AKADEMIE VED CR, V.V.I., priority 2013, dated 2016)
Where a name gives a salt, the structure may show the parent alone. Blank lines part the entries; values can stand above or below the compound they belong to.

Key:
MOLT-4 = assay: CellTiter-Glo luminescent cell viability assay (ATP quantification), MOLT-4; type: cell-based; settings: acute lymfoblastic leukemia cells, 72 h treatment, viable cells by ATP luminescence
Procedure: (§1) Influence of the test compounds on viability (proliferation) of cell lines used was investigated in concentration range 0-100 μmol·l^−1.
(§2) Suspension cell line MOLT-4 is a permanent in vitro culture of acute lymfoblastic leukemia. Linie MOLT-4 cell line was cultivated in RPMI 1640 medium (Sigma-Aldrich, see above) with addition of 2 mmol glutamine (Invitrogen, see above), 10% fetal bovine serum (FBS, Sigma-Aldrich, see above), 100 IU/ml peniciline, 100 μg/ml streptomycine (Sigma-Aldrich, see above). Passaging was performed 2-3× a week. Population doubling time of MOLT-4 cell line was 25 h under the cultivation conditions used.
(§3) In order to test the sensitivity of the cell lines towards the studied helquats, cytotoxity test for cell viability assessment based on ATP quantification in cell lysates was used (CellTiter-Glo® Luminescent Cell Viability Assay, Promega, cat. no. G7571). In this test, ATP in cell lysates is detected using luciferase reaction. Luminescence intensity correlates with the ATP level and thus with quantity of metabolically active (viable) cells. IC50 value serves as the output, that is the concentration of the test compound which leads to 50% reduction in number of viable cells as compared to control, untreated population. To this end, IC50 value reflects efficiency of the test compound with regard to the given cell line.
(§4) Cells in the exponential growth phase were seeded into a 96-well microtiter plate were plated at 3000 cells per well. Each well contained 90 μl of cell suspension. The next day, 10 μl of 10× concentrated test compound solutions were added. The effect of helquats was investigated in concentration range 1 to 100 μmol·l^−1 (e.g. 1; 2.5; 5; 7.5; 10; 15; 25; 50 and 100 μmol·l^−1). Apart from the section containing the concentration series of the test compound, each well contained 2 control columns, the first with pure medium (so called blank) and the second with cells in medium without the test compounds (control). Into wells containing controls and blanks, volume of solvent (water) equal to the volume of added compound solutions was added. After 72 h of incubation with the test compounds viability was determined according to the manufacturer's instructions. In short: microtiter well plate was left 30 min to reach the room temperature after it has been removed from the incubator. Then, into each well, 100 μl of the prepared detection agent was added. Next, the well plate was shaken for 2 min to complete the full lysis. Next, after the well had been left in the dark for 15 min, the luminescence was measured in each well using luminometer (Tecan Genios, Austria).
(§5) IC50 value represents concentration of the test compound, which leads to 50% reduction of viable cells (inhibition of cell growth) after 72 h of the treatment. Each helquat concentration was tested in triplicates in a IC50 quantification and at least 3 independent IC50 quantification experiments were performed. IC50 values over 100 μmol·l^−1 were obtained by extrapolation of data measured in concentration range 0-100 μmol·l^−1 for the given helquat.

CCRF-CEM = assay: CellTiter-Glo luminescent cell viability assay (ATP quantification), CCRF-CEM; type: cell-based; settings: acute lymphoblastic leukemia cells, 72 h treatment, viable cells by ATP luminescence
Procedure: as §1
Suspension cell line CCRF-CEM is a permanent in vitro culture of acute lymphoblastic leukemia. CCRF-CEM cell line was cultivated in RPMI 1640 medium (Sigma-Aldrich, cat. no. R8758) with addition of 2 mmol·l^−1 glutamine (Invitrogen, cat. no. 35050-038), 10% fetal bovine serum (FBS, Sigma-Aldrich, cat. no. F9665), 100 IU/ml peniciline, 100 μg/ml streptomycine (Sigma-Aldrich, cat. no. P0781). Passaging was performed 2-3× a week. Population doubling time of CCRF-CEM cell line was 20 h under the cultivation conditions used.
as §3, §4, §5

HUVEC = assay: CellTiter-Glo luminescent cell viability assay (ATP quantification), HUVEC normal cells; type: cell-based, human; settings: 72 h treatment
Procedure: as §1
Normal human endothelial cells from umbilical vein are adherent cells cultivated in plastic Petri dishes coated with collagen I. Into the cultivation medium (E-STIM™; BD Biosciences, cat. co. 355054) already containing 2% FBS (fetal bovine serum), hydrocortisone and heparin the following two further ingredients were added: epidermal growth factor (EGF, 5 μg) and mixture of factors facilitating growth of endothelial cells (ECGS, 100 mg). […] The cells were passaged after reaching 90% confluency by dissociation using 0.25% solution of trypsin/EDTA (1 ml; 3 min; 37° C.). After that 5 ml of complete cultivation medium E-STIM™ was added and the cells were centrifuged (180×g, 7 min), the pellet was resuspended, and transferred in the amount needed into a new Petri dish with fresh medium. The cells were used in experiments between the 3rd and the 8th passage after defreezing. Population doubling time of HUVEC cell line was 38 h under the cultivation conditions used.
as §3, §4, §5

NHDF-Ad = assay: CellTiter-Glo luminescent cell viability assay (ATP quantification), NHDF-Ad normal cells; type: cell-based; settings: normal human dermal fibroblasts, 72 h treatment
From the text: as §1
Normal human dermal fibroblasts were cultivated without antibiotics in basal medium for fibroblasts (ATCC/LGC Standards, cat. no. PCS-201-030) with added “Fibroblast Growth Kit-Low serum” (ATCC/LGC Standards, cat. no. PCS-201-041) containing 2% FBS, L-glutamine, hydrocortisone, ascorbic acid, rh FGF beta, rh insulin. When 90% confluency was reached the fibroblasts were washed with sterile PBS (5 ml) and dissociated by addition of 0.25% solution of trypsin/EDTA (2 ml; 2 min; 37° C.). After that 5 ml of cultivation medium for fibroblasts was added and the cells were centrifuged (180×g, 7 min), the cell pellet was resuspended, and transferred in the amount needed into a new cultivation bottle with fresh medium. The same cell release procedure was applied when the cells were to be used in experiments. The cells were used in experiments between the 3rd and the 15th passage after defreeezing. Population doubling time of NHDF-Ad cell line was 33 h under the cultivation conditions used.
as §3, §4, §5

LoVo = assay: CellTiter-Glo luminescent cell viability assay (ATP quantification), LoVo; type: cell-based; settings: Homo sapiens, LoVo; colorectal carcinoma cells, 72 h treatment, viable cells by ATP luminescence; class symbols
Procedure: as §1
(§6) Adherent cell line LoVo is a permanent in vitro culture derived from tissue of a patient with colorectal carcinoma. LoVo cell line was cultivated in DMEM medium (Sigma-Aldrich, cat. no. D8437) with addition of 2 mmol·l^−1 glutamine (Invitrogen, see above), 10% fetal bovine serum (FBS, Sigma-Aldrich, see above), 100 IU/ml peniciline, 100 μg/ml streptomycine (Sigma-Aldrich, see above). Passaging was performed twice a week. After washing of cells with sterile PBS, the cells were released by 0.25% trypsin/EDTA (Sigma-Aldrich, see above) at 37° C. for 2 minutes. The trypsin was inactivated by addition of 2 volumes of complete medium, cells were then centrifuged (250×g, 5 min), resuspended, and transferred in the amount needed into a new cultivation bottle with fresh medium. Population doubling time of LoVo cell line was 39 h under the cultivation conditions used.
as §3, §4, §5

Hep G2 = assay: CellTiter-Glo luminescent cell viability assay (ATP quantification), Hep G2; type: cell-based; settings: Homo sapiens, HepG2; hepatocellular carcinoma cells, 72 h treatment, viable cells by ATP luminescence
Procedure: as §1
as §6, with “Hep G2” for “LoVo”, “from liver” for “from”, “hepatocellular” for “colorectal”, “M4528)” for “D8437)”, “28” for “39”
as §3
as §4, with “In short: microtiter well plate was left 30 min to reach the room temperature after it has been removed from the incubator. Then, into each well, 100 μl of the prepared detection agent was added. Next, the well plate was shaken for 2 min to complete the full lysis.” left out, “Austria). […]” for “Austria).”

HeLa = assay: CellTiter-Glo luminescent cell viability assay (ATP quantification), HeLa; type: cell-based; settings: cervical cancer cells, 72 h treatment, viable cells by ATP luminescence
Procedure: as §1
Adherent cell line HeLa is a permanent in vitro culture derived from cervical cancer. HeLa cell line was cultivated in RPMI 1640 medium (Dutch modification) (Sigma-Aldrich, cat. no. R7638) with addition of 2 mmol·l^−1 glutamine (Invitrogen, see above), 10% fetal bovine serum (FBS, Sigma-Aldrich, see above), 100 IU/ml peniciline, 100 μg/ml streptomycine (Sigma-Aldrich, see above). Passaging was performed twice a week. After washing of cells with sterile PBS the cells were released by 0.25% trypsin/EDTA (Sigma-Aldrich, cat. no. T4049) at 37° C. for 2 minutes. The trypsin was inactivated by addition of 2 volumes of complete medium, cells were then centrifuged (250×g, 5 min), the cell pellet was resuspended, and transferred in the amount needed into a new cultivation bottle with fresh medium. Population doubling time of […] cell line was 25 h under the cultivation conditions used.
as §3, §4, §5

HL-60 = assay: CellTiter-Glo luminescent cell viability assay (ATP quantification), HL-60; type: cell-based; settings: acute promyelocytic leukemia cells, 72 h treatment, viable cells by ATP luminescence
Procedure: as §1
as §2, with “HL-60” for “MOLT-4”, “promyelocytic” for “lymfoblastic”, “HL-60” for “Linie MOLT-4”, “mmol·l^−1” for “mmol”, “23” for “25”
as §3, §4, §5

melting point: 318 to 322 °C
SMILES: CN(C)c1ccc(/C=C/c2cccc3[n+]2CCCc2ccc4c(c2-3)-c2cccc(/C=C/c3ccc(N(C)C)cc3)[n+]2CCC4)cc1 (racemic) (as salt: methanesulfonate) [(rac)-41, (rac)-4,15-bis((E)-4-(dimethylamino)styryl)-6,7,8,11,12,13-hexahydro-dipyrido[1,2-a:1′,2′-a′]benzo[2,1-c:3,4-c′]bisazepinediium trifluoromethanesulfonate]

IC50 (MOLT-4; Homo sapiens, MOLT-4): 51 to 150 µM | IC50 (CCRF-CEM; Homo sapiens, CCRF-CEM): 11 to 50 µM | IC50 (LoVo): 51 to 150 µM | IC50 (HeLa; Homo sapiens, HeLa): 11 to 50 µM
SMILES: Cc1c(C)c2c(c3c1CC[n+]1ccc4ccccc4c1-3)-c1cccc(/C=C/c3cc4c5c(c3)CCCN5CCC4)[n+]1CC2 (racemic) [(rac)-12, (rac)-(E)-11-(2-(1,2,3,5,6,7-hexahydropyrido[3,2,1-ij]yl)vinyl)-6,7-dimethyl-4,5,8,9-tetrahydroisoquinolino[1,2-a]pyrido[1,2-k][2,9]phenanthroline-3,10-diium trifluoromethanesulfonate]
IC50 (HUVEC; HUVEC, normal human endothelial cells from umbilical vein, viable cells by ATP luminescence, class symbols): 51 to 150 µM | IC50 (NHDF-Ad; Fibroblast, viable cells by ATP luminescence, class symbols): 51 to 150 µM | IC50 (Hep G2): 11 to 50 µM

IC50 (MOLT-4; Homo sapiens, MOLT-4): 11 to 50 µM | IC50 (CCRF-CEM; Homo sapiens, CCRF-CEM): 11 to 50 µM | IC50 (LoVo): 51 to 150 µM | IC50 (HL-60; Homo sapiens, HL-60): 11 to 50 µM | IC50 (HeLa; Homo sapiens, HeLa): 11 to 50 µM
SMILES: C(=C\c1cc[n+]2c(c1)-c1c(ccc3c1-c1c4ccccc4cc[n+]1CCC3)CCC2)/c1cc2c3c(c1)CCCN3CCC2 (racemic) [(rac)-25, (rac)-(E)-19-(2-(1,2,3,5,6,7-hexahydropyrido[3,2,1-ij]quinolin-9-yl)vinyl)-8,9,10,13,14,15-hexahydropyrido[1′″,2′″:1″,2″]azepino[4″,3″:5′,6′]benzo[1′,2′:3,4]azepino[2,1-a]isoquinoline-7,16-diium trifluoromethanesulfonate]
IC50 (HUVEC; HUVEC, normal human endothelial cells, numeric bound, values over 100 obtained by extrapolation of data measured at 0-100 μmol·l−1): > 150 µM | IC50 (NHDF-Ad; Fibroblast, numeric bound, values over 100 obtained by extrapolation of data measured at 0-100 μmol·l−1): > 150 µM

IC50 (MOLT-4): 11 to 50 µM | IC50 (CCRF-CEM): 11 to 50 µM | IC50 (HL-60): 11 to 50 µM | IC50 (HeLa): 11 to 50 µM
SMILES: COc1ccc2cc(/C=C/c3cc[n+]4c(c3)-c3c(c(C)c(C)c5c3-c3c6ccccc6cc[n+]3CC5)CC4)ccc2c1 [(P)-7, (P)-(E)-13-(2-(6-methoxynaphthalene-2-yl)vinyl)-6,7-dimethyl-4,5,8,9-tetrahydroiso-quinolino[1,2-a]pyrido[1,2-k][2,9]phenanthroline-3,10-diium trifluoromethanesulfonate]
IC50 (HUVEC; normal human endothelial cells from umbilical vein, viable cells by ATP luminescence, class symbols): 51 to 150 µM | IC50 (NHDF-Ad; viable cells by ATP luminescence, class symbols): 51 to 150 µM
